Results: EP4417607A1, “HETEROCYCLIC COMPOUND AS SOS1 INHIBITOR AND USES THEREOF” (Nanjing Zaiming Pharmaceutical Co., Ltd., priority 2021, dated 2023)

System: p-ERK pathway in H358 cells
Test: p-ERK pathway inhibition in H358 cells (Advanced phospho-ERK (Thr202/Tyr204) cellular kit, HTRF)
Assay type: cell-based
Details: Homo sapiens, NCI-H358, 1 h compound incubation
Protocol: The effect of the compounds of the present invention on H358 cell p-ERK pathway was assessed by Advanced phospho-ERK (Thr202/Tyr204) cellular kit method.
The experimental procedures were summarized as follows: H358 cells (ATCC, CRL-5807) were cultured in RPMI1640 (ThermoFisher, A1049101) complete medium containing 10% FBS (Gibco, 10100147) and 100 U/mL penicillin-streptomycin mixed solution (Gibco, 15140163). When the coverage of the cells in the culture vessel reached 80-90%, the cells were pipetted and seeded in a 96-well plate (Corning, 3599) at 50000 cells/well (90 µL RPMI1640 complete medium), and the plate was left to stand for 5 min, cultured in an incubator at 37 °C with 5% CO2 for 6 h, replaced with a serum-free RPMI1640, and starved overnight.
After incubation overnight, 10 µL of a diluted test compound was added to each well using a multi-channel pipette, and the 96-well plate was cultured in an incubator at 37 °C with 5% CO2 for 1 h. The supernatant was poured. The cells were washed once with PBS. 50 µL of a lysis buffer (Advanced phospho-ERK (Thr202/Tyr204) cellular kit, 64AERPEH) was added to each well. The plate was shaken at room temperature at 450 rpm for 1 h. After the cells were completely lysed, 16 µL of the supernatant was added to a 384-well plate (PE, 6007299), mixed energy donor Eu and energy acceptor D2 (D2/Eu = 1:1) were added, and the plate was incubated at room temperature for 4 h. HTRF on the microplate reader was selected for plate reading, Ratio = Signal 665 nm/Signal 620 nm × 10^4. In this experiment, the cell-free group (replaced with 1640 medium) was used as the 100% inhibition group, and the compound-free group in which the cell was added was used as the 0% inhibition group.
The inhibition percentage of H358 cell p-ERK pathway by the compounds of the present invention could be calculated by the following formula: [formula]
IC50 values of the compounds were calculated from 8 concentration points using XLfit (ID Business Solutions Ltd., UK) software by the following formula: Y = Bottom + (Top−Bottom)/(1+10^(∧)((logIC50−X)×slopefactor)) [formula]
Y is the inhibition percentage, X is the logarithmic value of the concentration of the test compound, Bottom is the minimum inhibition percentage, Top is the maximum inhibition percentage, and slope factor is the slope coefficient of the curve. The default fitted curve was used to fit the slope of the S-shaped curve to determine the IC50 value. Table 2. Results of p-ERK inhibition test by the compounds of the present invention

IC50 | Structure (SMILES)
111 nM | Cc1nc(N[C@H](C)c2cccc(C(F)F)c2F)c2cn(C3(CF)CC3)c(=O)c(-c3c(C)noc3C)c2n1 [Example 123, (R)-4-((1-(3-(difluoromethyl)-2-fluorophenyl)ethyl)amino)-8-(3,5-dimethylisoxazol-4-yl)-6-(1-(fluoromethyl)cyclopropyl)-2-methylpyrido[4,3-d]pyrimidine-7(6H)-one]
127 nM | Cc1nc(N[C@H](C)c2cccc(C(F)F)c2F)c2cn(C3(CF)CC3)c(=O)c(C(F)(F)F)c2n1 [Example 2, (R)-4-((1-(3-(difluoromethyl)-2-fluorophenyl)ethyl)amino)-6-(1-(fluoromethyl)cyclopropyl)-2-methyl-8-(trifluoromethyl)pyrido[4,3-d]pyrimidine-7(6H)-one]
138 nM | Cc1nc(N[C@H](C)c2cccc(C(F)F)c2F)c2cn(C3(CF)CC3)c(=O)c(-c3cnn4c3CCC4)c2n1 [Example 170]
77.2 nM | CNc1c(=O)n(C2(CF)CC2)cc2c(N[C@H](C)c3cccc(C(F)F)c3F)nc(C)nc12 [Example 77]

More lines, now with the values behind:

Structure (SMILES) | IC50
Cc1nc(N[C@H](C)c2cccc(C(F)F)c2F)c2cn(N3CCOCC3)c(=O)c(OCC3(C)COC3)c2n1 [Example 121, (R)-4-((1-(3-(difluoromethyl)-2-fluorophenyl)ethyl)amino)-2-methyl-8-((3-methloxetan-3-yl)methoxy)-6-morpholinylpyrido[4,3-d]pyrimidine-7(6H)-one] | 107 nM
COC1(c2c(=O)n(C3(CF)CC3)cc3c(N[C@H](C)c4cccc(C(F)F)c4F)nc(C)nc23)CCOC1 (stereo partly drawn) [Example 140, 4-(((R)-1-(3-(difluoromethyl)-2-fluorophenyl)ethyl)amino)-6-(1-(fluoromethyl)cyclopropyl)-8-(3-methoxytetrahydrofuran-3-yl)-2-methylpyrido[4,3-d]pyrimidine-7(6H)-one] | 131 nM
COc1c(=O)n(C2(CF)CCN(C(C)=O)C2)cc2c(N[C@H](C)c3cccc(C(F)F)c3F)nc(C)nc12 (stereo partly drawn) [Example 8, 6-(1-acetyl-3-(fluoromethyl)pyrrolidin-3-yl)-4-(((R)-1-(3-(difluoromethyl)-2-fluorophenyl)ethyl)amino)-8-methoxy-2-methylpyrido[4,3-d]pyrimidine-7(6H)-one] | 92.9 nM
Cc1nc(N[C@H](C)c2cccc(S(F)(F)(F)(F)F)c2)c2cn(N3CCOCC3)c(=O)cc2n1 [Example 18, (R)-2-methyl-6-morpholine-4-((1-(3-(pentafluoro-λ^6-sulfanyl)phenyl)ethyl)amino) pyrido[4,3-d]pyrimidine-7(6H)-one] | 79.8 nM
COc1c(=O)n(C2(CF)CCN(C(C)=O)C2)cc2c(N[C@H](C)c3cccc(C#N)c3C)nc(C)nc12 (stereo partly drawn) [Example 17, 3-((1R)-1-((6-(1-acetyl-3-(fluoromethyl)pyrrolidin-3-yl)-8-methoxy-2-methyl-7-oxo-6,7-dihydropyrido[4,3-d]pyrimidin-4-yl)amino)ethyl)-2-methylbenzonitrile] | 33.7 nM
Cc1nc(N[C@H](C)c2cccc(C(F)F)c2F)c2cn(C3(CF)CC3)c(=O)c(N3C[C@H]4C[C@@H]3CO4)c2n1 [Example 53, 8-((1R,4R)-2-oxa-5-azabicyclo[2.2.1]heptan-5-yl)-4-(((R)-1-(3-(difluoromethyl)-2-fluorophenyl)ethyl)amino)-6-(1-(fluoromethyl)cyclopropyl)-2-methylpyrido[4,3-d]pyrimidine-7(6H)-one] | 176 nM
Cc1nc(N[C@H](C)c2cccc(C(F)F)c2F)c2cn(C3(CF)CC3)c(=O)c(N3CC(S(C)(=O)=O)C3)c2n1 [Example 111, (R)-4-((1-(3-(difluoromethyl)-2-fluorophenyl)ethyl)amino)-6-(1-(fluoromethyl)cyclorol-2-methyl-8-3-methylsulfonylazetidin-1-yl)pyrido[4,3-d]pyrimidine-7(6H)-one] | 110 nM
COc1c(=O)n(N2CCOCC2)cc2c(N[C@H](C)c3cccc([N+](=O)[O-])c3C)nc(C)nc12 [Example 24, (R)-4-((1-(2-methyl-3-nitrophenyl)ethyl)amino)-8-methoxy-2-methyl-6-morpholinepyrido[4,3-d]pyrimidine-7(6H)-one] | 70.4 nM
